Results published in patent US4337249A, “Modulators of the complement system” (American Cyanamid Company, priority 1981, dated 1982).
Where a name gives a salt, the structure may show the parent alone.

How the values were obtained:
[1] = tested on: complement in pool of guinea pig serum; experiment: Cap 50 Test (undiluted serum capillary tube assay); assay type: biochemical
Method: (§1) An active inhibitor protects C2 from C1 and C4; (ii) Cap 50 Test Here, appropriate amounts of the test compound are added to a pool of guinea pig serum in vitro, after which the undiluted serum capillary tube assay of U.S. Pat. No. 3,876,376 is run. The concentration of compound inhibiting 50% is reported; and (iii) Guinea Pig Intraperitoneal Test (GPIP)--Guinea pigs weighing about 300 g are dosed intraperitoneally (i.p.) with 200 mg kg of the test compound dissolved in saline and adjusted to pH 7-8. Approximately 0.4 ml blood samples, taken by orbital sinus puncture 2 hours and 6 hours after injections, are collected directly into centrifuge tubes; 5 ml blood samples, taken by decapitation 24 hours after injection, are collected directly into beakers. The samples are allowed to clot, centrifuged, and the resultant sera are assayed for complement activity using the capillary complement assay. Percent inhibition are calculated by comparison with simultaneous controls. The results of the GPIP appear in Table I together with results of Test Code 026 and Cap 50.

activated human C1 = target: T1, activated human C1 (Homo sapiens, UniProt P09871); experiment: Test Code 026 (C1 inhibitor); assay type: biochemical; details: serial twofold dilution assay; higher well number indicates higher activity; protection of human C2 from C1 in presence of C4
T1 sequence (P09871 438-688 limits assumed): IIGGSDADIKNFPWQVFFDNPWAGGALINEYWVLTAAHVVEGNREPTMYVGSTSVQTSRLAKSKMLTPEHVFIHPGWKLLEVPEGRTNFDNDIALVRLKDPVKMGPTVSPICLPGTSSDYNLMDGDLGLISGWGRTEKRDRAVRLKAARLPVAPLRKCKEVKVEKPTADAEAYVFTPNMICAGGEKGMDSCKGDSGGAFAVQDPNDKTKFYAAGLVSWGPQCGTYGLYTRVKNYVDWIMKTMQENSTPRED
T1 sequence (P09871 16-437 limits assumed): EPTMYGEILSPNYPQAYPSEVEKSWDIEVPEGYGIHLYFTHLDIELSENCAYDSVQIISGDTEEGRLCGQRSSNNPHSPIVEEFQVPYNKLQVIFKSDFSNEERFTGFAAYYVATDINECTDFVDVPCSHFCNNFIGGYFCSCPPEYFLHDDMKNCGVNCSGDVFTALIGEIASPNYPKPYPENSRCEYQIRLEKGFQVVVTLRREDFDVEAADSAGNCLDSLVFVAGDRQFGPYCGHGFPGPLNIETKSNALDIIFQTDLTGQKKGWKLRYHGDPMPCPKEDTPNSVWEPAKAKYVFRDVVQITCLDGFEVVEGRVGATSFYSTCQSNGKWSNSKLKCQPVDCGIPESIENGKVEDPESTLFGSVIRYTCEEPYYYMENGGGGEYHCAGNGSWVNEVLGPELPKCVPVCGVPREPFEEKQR
Method: as §1

[2] = tested on: serum complement activity; experiment: Guinea Pig Intraperitoneal Test (GPIP); assay type: in vivo; details: 200 mg kg i.p., versus simultaneous controls
Method: as §1

`O=C(C=Cc1ccc(OS(=O)(=O)O)c(OS(=O)(=O)O)c1)N[C@@H]1O[C@H](COS(=O)(=O)O)[C@@H](O[C@H]2O[C@H](COS(=O)(=O)O)[C@@H](OS(=O)(=O)O)[C@H](OS(=O)(=O)O)[C@H]2OS(=O)(=O)O)[C@H](OS(=O)(=O)O)[C@H]1OS(=O)(=O)O` [N-(4-O-α-D-Glucopyranosyl-β-D-glucopyranosyl)-3,4-dihydroxycinnamamide, nonakis (H-sulfate), (nonaester), nonasodium salt] was tested, and the “In vitro Activity Cap 50 (concentration of compound inhibiting 50%)” value [1] was 304, the “In vitro Activity C1 026 Wells” value (activated human C1) was 8 (9) Wells and the “In vivo Activity (Guinea pig % Inhibition) Intraperitoneal, 2 hours” value ([2]; serum 2 hours after injection) was 63 % Inhibition. The “In vivo Activity (Guinea pig % Inhibition) Intraperitoneal, 6 hours” value ([2]; serum 6 hours after injection) was 17 % Inhibition and the “In vivo Activity (Guinea pig % Inhibition) Intraperitoneal, 24 hours” value ([2]; serum 24 hours after injection) was 2 % Inhibition.
